{"source": "patent US20040058056A1", "about": "“Drug diffusion coatings, applications and methods” (priority 2003, published 2004)", "type_in_all_cases": "physicochemical", "key": {"[1]": {"assay": "Elution of NPC-15199 from PHEMA-coated stainless steel coupons with TMCTS plasma membrane", "settings": "buffered saline pH 7.4, room temperature", "protocol": "N-(9-fluorenylmethoxycarbonyl)-L-leucine (NPC-15199), an anti-inflammatory drug, was coated on a stainless steel coupon by dip-coating the coupon in a mixture of 20 mM NPC-15199 in a 60:40 solution of acetone:water containing 7.5% poly(2-hydroxyethyl methacrylate) (“PHEMA”). The coupon was then air dried for about 5 minutes at approximately 60° C. TMCTS plasma was deposited on different NPC-15199 coated coupons for 20, 40, 60 and 80 seconds, respectively. […] at pH 7.4 at room temperature. Elution of NPC-15199 was measured by change in absorbance using a spectrophotometer.\nThe plasma was generated at 83 W and 55 mTorr with a mass flow rate of 84 sccm; under these conditions a micro-thin siloxane membrane is deposited on the targeted surface, with the thickness directly related to the length of time of plasma deposition."}, "[2]": {"assay": "Elution of daunomycin from PHEMA-coated stainless steel coupons with TMCTS plasma membrane", "settings": "buffered saline pH 7.4; absorbance at 480 nm; different TMCTS plasma deposition times", "protocol": "Before drug application and plasma coating to 0.71 cm×0.71 cm 316 stainless steel coupon surfaces, all the coupons were cleaned with Acationox detergent, rinsed exhaustively with water, and air-dried. The coupons were then dip-coated in 80% ethanol containing 5% PHEMA and 5 mg/ml of daunomycin. After dipping, the coupons were wicked to remove excess solution, and air-dried under a gentle flow of warm air. Thereafter, the coated coupons were stored in the dark. The drug-coated coupons were then plasma-deposited with TMCTS for varying amounts of time. The plasma was generated at 83 W and 55 mTorr with a mass flow rate of 84 sccm of TMCTS monomer vapor. The coating thickness could be precisely controlled by plasma deposition time, with a coating thickness in the range of 5 to 200 nm.\nThe coupons were eluted in buffered saline at pH 7.4. The eluted drug was measured spectrophotometrically at 480 nm for daunomycin. The absorbance change was proportional to the concentration of daunomycin."}, "[3]": {"assay": "Elution of rapamycin from TMCTS plasma-coated stainless steel coupons in porcine serum", "protocol": "The elution time of rapamycin from the surface of stainless steel coupons was evaluated as a function of plasma deposition time. One side of stainless steel coupons was coated with 100±10 μg of rapamycin dissolved in chloroform (0.2%, w/v). After air drying at room temperature, the coated surfaces were plasma coated with TMCTS. The plasma was generated at 83 W and 55 mTorr with a mass flow rate of 84 sccm at various time lengths between 30 and 300 seconds. The coated coupons were extracted with porcine serum mixed with 0.02% NaN3 as the preservative at 37° C. The remaining amounts of the drug on the coupon was extracted with 2 ml of methanol for 2 hours at room temperature and assayed by HPLC at 277 nm, utilizing an HPLC system calibrated with known amounts of rapamycin."}}, "data": [{"smiles": "CC(C)C[C@H](NC(=O)OCC1c2ccccc2-c2ccccc21)C(=O)O", "note": "[NPC-15199, N-(9-fluorenylmethoxycarbonyl)-L-leucine]", "values": [{"measurement": "T1/2 (half-elution time)", "setting": "[1]; TMCTS plasma deposition time 20 seconds", "result": 0.833, "unit": "min"}, {"measurement": "T1/2 (half-elution time)", "setting": "[1]; TMCTS plasma deposition time 40 seconds", "result": 1.67, "unit": "min"}, {"measurement": "T1/2 (half-elution time)", "setting": "[1]; TMCTS plasma deposition time 60 seconds", "result": 2.5, "unit": "min"}, {"measurement": "T1/2 (half-elution time)", "setting": "[1]; TMCTS plasma deposition time 80 seconds", "result": 4, "unit": "min"}]}, {"smiles": "COc1cccc2c1C(=O)c1c(O)c3c(c(O)c1C2=O)C[C@@](O)(C(C)=O)C[C@@H]3O[C@H]1C[C@H](N)[C@H](O)[C@H](C)O1", "note": "[daunomycin]", "values": [{"measurement": "drug diffusion time", "setting": "[2]", "result": "controlled by the TMCTS coating thickness"}]}, {"smiles": "CO[C@H]1C[C@@H]2CC[C@@H](C)[C@@](O)(O2)C(=O)C(=O)N2CCCC[C@H]2C(=O)O[C@H]([C@H](C)C[C@@H]2CC[C@@H](O)[C@H](OC)C2)CC(=O)[C@H](C)/C=C(\\C)[C@@H](O)[C@@H](OC)C(=O)[C@H](C)C[C@H](C)/C=C/C=C/C=C/1C", "note": "[rapamycin]", "values": [{"measurement": "% Remaining", "setting": "[3]; 0 (uncoated) TMCTS deposition, elution time 0 hours", "result": 100, "unit": "%"}, {"measurement": "% Remaining", "setting": "[3]; 0 (uncoated) TMCTS deposition, elution time 17 hours, porcine serum 37° C.", "result": 0, "unit": "%"}, {"measurement": "% Remaining", "setting": "[3]; TMCTS deposition 30 seconds, elution time 64 hours, porcine serum 37° C.", "result": 2.6, "unit": "%"}, {"measurement": "Estimated Half-Life", "setting": "[3]; TMCTS deposition 30 seconds, porcine serum 37° C.", "result": 12, "unit": "h"}, {"measurement": "% Remaining", "setting": "[3]; TMCTS deposition 60 seconds, elution time 64 hours, porcine serum 37° C.", "result": 33.2, "unit": "%"}, {"measurement": "Estimated Half-Life", "setting": "[3]; TMCTS deposition 60 seconds, porcine serum 37° C.", "result": 41, "unit": "h"}, {"measurement": "% Remaining", "setting": "[3]; TMCTS deposition 120 seconds, elution time 47.5 hours, porcine serum 37° C.", "result": 67.7, "unit": "%"}, {"measurement": "Estimated Half-Life", "setting": "[3]; TMCTS deposition 120 seconds, porcine serum 37° C.", "result": 84, "unit": "h"}, {"measurement": "% Remaining", "setting": "[3]; TMCTS deposition 180 seconds, elution time 24 hours, porcine serum 37° C.", "result": 76.3, "unit": "%"}, {"measurement": "Estimated Half-Life", "setting": "[3]; TMCTS deposition 180 seconds, porcine serum 37° C.", "result": 94, "unit": "h"}, {"measurement": "% Remaining", "setting": "[3]; TMCTS deposition 240 seconds, elution time 24 hours, porcine serum 37° C.", "result": 93.6, "unit": "%"}, {"measurement": "Estimated Half-Life", "setting": "[3]; TMCTS deposition 240 seconds, porcine serum 37° C.", "result": 211, "unit": "h"}, {"measurement": "% Remaining", "setting": "[3]; TMCTS deposition 300 seconds, elution time 47.5 hours, porcine serum 37° C.", "result": 91.9, "unit": "%"}, {"measurement": "Estimated Half-Life", "setting": "[3]; TMCTS deposition 300 seconds, porcine serum 37° C.", "result": 360, "unit": "h"}]}]}
